In this assay the test system is NCI-60 panel of cancer cell lines. Briefly: NCI-60 one dose screen, whole panel. Type of assay: cell-based. To be noted: 10 μM, 48 hours. On the procedure: One dose and five dose cytotoxicity screening was performed by the NCI-60 screening program of the National Institutes of Health (NIH), which is known in the art and available from the NIH. The NCI-60 panel is a collection of cancer cell lines, from various diverse tumors, which was developed in the 1980s by the National Cancer Institute to aid screening efforts for cytotoxic or cytostatic compounds.
In these screens, 60 cell lines, were utilized to determine the cytotoxic effect of small molecules, natural products, and other drug candidates. […]
The five dose screen was performed by creating four 10-fold dilutions of the highest concentration of the diluted 7-acetoxyroyleanone made in the same manner as the one dose screen. […] The bound stain was then dissolved in 10 mM trizma base and the absorbance was read using an automated plate reader at 515 nm. […]

Regarding `CC(=O)O[C@@H]1C[C@H]2C(C)(C)CCC[C@]2(C)C2=C1C(=O)C(C(C)C)=C(O)C2=O` [7-acetoxyroyleanone], the “growth percent, average for all cell types screened” value is −18.5%. Where the note is “minimum over all cell lines”, the “growth inhibition of each cell line compared to the control” value is listed as “at least 72.88%”.

For the origin of these results see US20180353457A1, “ABIETANE DITERPENOID 7-ACETOXYROYLEANONES FOR USE IN CANCER TREATMENT” (University of South Carolina, priority 2017, published 2018).
